Results reported in US20250361253A1, “STING AGONIST COMPOUNDS” (Sutro Biopharma, Inc., priority 2022, published 2025).

Columns and labels:
[1] = target: T1, hSTING-R232 (Homo sapiens, UniProt Q86WV6, H232R); experiment: ISG reporter induction in 293-Dual hSTING-R232 reporter cells (QUANTI-Blue); format: cell-based; details: 293-Dual hSTING-R232 cells, overnight incubation
T1 construct: host or cells: 293-Dual (HEK293-derived) reporter cells
Procedure: (§1) Certain STING compounds of the disclosure were evaluated in an in vitro cell based assay.
(§2) 293-Dual hSTING-R232 and mSTING cells (Invivogen) were seeded at 25,000 cells/well (50 ul) and co-cultured with STING agonists (2× concentration, 50 ul) in clear, half-area, 96-well polystyrene plates. Cells and test samples were prepared in DMEM supplemented with 10% FBS, Glutamax, and PenStrep. After overnight incubation at 37 C in a CO2 incubator, 20 ul of supernatant was added to QUANTI-Blue detection reagent (Invivogen). After one hour incubation at 37 C, plates were read at 640/650 nm on EnVision plate reader (PerkinElmer). OD values were plotted by log(agonist) vs. response, variable slope, four parameter curve fit (Log transform) using GraphPad Prism software to determine EC50 values.

[2] = target: T2, mSTING (Mus musculus, UniProt Q3TBT3); experiment: ISG reporter induction in 293-Dual mSTING reporter cells (QUANTI-Blue); format: cell-based; details: 293-Dual mSTING cells, overnight incubation
T2 construct: host or cells: 293-Dual (HEK293-derived) reporter cells
T2 sequence (Q3TBT3 1-378): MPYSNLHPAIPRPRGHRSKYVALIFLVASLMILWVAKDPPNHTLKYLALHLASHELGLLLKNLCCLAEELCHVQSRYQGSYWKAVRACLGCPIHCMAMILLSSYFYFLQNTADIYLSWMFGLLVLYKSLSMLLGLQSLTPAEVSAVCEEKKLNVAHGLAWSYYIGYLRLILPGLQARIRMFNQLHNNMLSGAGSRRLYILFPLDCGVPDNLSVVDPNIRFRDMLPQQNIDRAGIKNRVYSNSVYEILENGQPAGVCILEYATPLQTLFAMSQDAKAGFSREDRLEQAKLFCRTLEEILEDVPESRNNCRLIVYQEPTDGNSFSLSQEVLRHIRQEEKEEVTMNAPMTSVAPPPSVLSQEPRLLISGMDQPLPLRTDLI
Procedure: as §1, §2

[3] = target: T3, hSTING WT (Homo sapiens, UniProt Q86WV6); experiment: Thermal shift assay (DSF); format: binding; design: unit not given here; details: compound at 3.12 uM
Description: Thermal shift assay experimental methods were followed based on the published methods described in Ramanjulu et al. Nature, 2018, 564, 439.

[4] = target: T3, hSTING WT; experiment: Surface plasmon resonance assay; format: binding; details: read-out: hSTING WT SPR (Kd)
Procedure: Surface plasmon resonance assay experimental methods were followed based on the published methods described in Pan et al., Science, 2020 369, eaba6098. (“A” means EC50≤20 nM).

T1 sequence (Q86WV6 whole entry H232R): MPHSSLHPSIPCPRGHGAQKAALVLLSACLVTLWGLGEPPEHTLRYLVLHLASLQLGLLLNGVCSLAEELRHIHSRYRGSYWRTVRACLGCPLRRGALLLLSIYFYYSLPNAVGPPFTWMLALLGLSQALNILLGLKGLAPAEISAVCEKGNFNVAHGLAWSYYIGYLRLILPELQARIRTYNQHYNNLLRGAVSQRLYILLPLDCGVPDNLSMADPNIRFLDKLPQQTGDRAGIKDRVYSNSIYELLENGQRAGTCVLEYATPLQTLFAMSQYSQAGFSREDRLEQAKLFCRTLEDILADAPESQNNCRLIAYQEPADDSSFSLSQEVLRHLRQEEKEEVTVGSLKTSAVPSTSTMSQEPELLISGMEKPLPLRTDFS
T3 sequence (Q86WV6 155-341 H232R limits assumed): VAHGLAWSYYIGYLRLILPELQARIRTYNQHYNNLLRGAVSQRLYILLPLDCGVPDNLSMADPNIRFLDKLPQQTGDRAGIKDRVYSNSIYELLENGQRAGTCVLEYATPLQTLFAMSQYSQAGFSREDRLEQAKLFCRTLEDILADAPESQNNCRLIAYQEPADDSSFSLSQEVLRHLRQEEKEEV

Compound	EC50 [1] [nM]	EC50 [2] [nM]	hSTING WT DSF (delta TmD @ 3.12 uM) [3]	Kd [4] [nM]
COC(=O)C(C)(C)CC(=O)c1cc2c(F)c(OCCCOc3c(OC)cc4sc(C(=O)CP(=O)(O)O)cc4c3F)c(OC)cc2s1 [Compound 5, (2-(4-Fluoro-5-(3-((4-fluoro-6-methoxy-2-(4-methoxy-3,3-dimethyl-4-oxobutanoyl)benzo[b]thiophen-5-yl)oxy)propoxy)-6-methoxybenzo[b]thiophen-2-yl)-2-oxoethyl)phosphonic acid]	50 to 150	50 to 150	−0.1	
COc1cc2sc(C(=O)CC(C)(C)C(=O)O)cc2c(F)c1OCCCOc1c(OC)cc2sc(C(=O)CC(C)(C)P(=O)(O)O)cc2c1F [Compound 9, 4-(4-Fluoro-5-(3-((4-fluoro-6-methoxy-2-(3-methyl-3-phosphonobutanoyl)benzo[b]thiophen-5-yl)oxy)propoxy)-6-methoxybenzo[b]thiophen-2-yl)-2,2-dimethyl-4-oxobutanoic acid]	> 150	> 150		
COc1cc2sc(C(=O)CC(C)(C)C(=O)O)cc2c(F)c1OCCCOc1ccc2cc(C(=O)CCC(=O)O)ccc2c1F [Compound 15, 4-(5-(3-((6-(3-Carboxypropanoyl)-1-fluoronaphthalen-2-yl)oxy)propoxy)-4-fluoro-6-methoxybenzo[b]thiophen-2-yl)-2,2-dimethyl-4-oxobutanoic acid]	> 150	> 150		
COc1cc2cc(C(=O)CCC(=O)O)ccc2cc1OCCCOc1c(OC)cc2sc(C(=O)CC(C)(C)C(=O)O)cc2c1F [Compound 22]	> 150	> 150		
COc1cc2sc(CCP(=O)(O)O)cc2c(F)c1OCCCOc1c(OC)cc2sc(C(=O)CC(C)(C)C(=O)O)cc2c1F [Compound 19]	> 150	> 150		
COc1cc2sc(C(=O)CC(C)(C)C(=O)O)cc2c(F)c1OCCCOc1c(OC)cc2sc(C(=O)CC(C)(C)C(=O)NCCN)cc2c1F [Compound 18]	> 150	> 150		
COc1cc2sc(C(=O)CC(C)(C)C(=O)O)cc2c(F)c1OCCCOc1c(OC)cc2sc(C(=O)CS(=O)(=O)O)cc2c1F [Compound 1, 4-(4-Fluoro-5-(3-((4-fluoro-6-methoxy-2-(2-sulfoacetyl)benzo[b]thiophen-5-yl)oxy)propoxy)-6-methoxybenzo[b]thiophen-2-yl)-2,2-dimethyl-4-oxobutanoic acid]	> 150	50 to 150	20	≤ 20
COc1cc2sc(C(=O)CC(C)(C)C(=O)O)cc2c(F)c1OCCCOc1c(OC)cc2sc(C3CC3CC(=O)O)cc2c1F (stereo not drawn) [Compound 12, 4-(5-(3-((2-(2-(carboxymethyl)cyclopropyl)-4-fluoro-6-methoxybenzo[b]thiophen-5-yl)oxy)propoxy)-4-fluoro-6-methoxybenzo[b]thiophen-2-yl)-2,2-dimethyl-4-oxobutanoic acid]	> 150	50 to 150		

Continued, values first:

EC50 [1] [nM]	EC50 [2] [nM]	hSTING WT DSF (delta TmD @ 3.12 uM) [3]	Kd [4] [nM]	Compound
≤ 50	≤ 50	20	≤ 20	COc1cc2sc(C(=O)CC(C)(C)C(=O)O)cc2c(F)c1OCCCOc1c(OC)cc2sc(C(=O)CP(=O)(O)O)cc2c1F [Compound 6, 4-(4-Fluoro-5-(3-((4-fluoro-6-methoxy-2-(2-phosphonoacetyl)benzo[b]thiophen-5-yl)oxy)propoxy)-6-methoxybenzo[b]thiophen-2-yl)-2,2-dimethyl-4-oxobutanoic acid]
≤ 50	≤ 50	20	≤ 20	COc1cc2sc(C(=O)CCC(=O)O)cc2c(F)c1OCCCOc1c(OC)cc2sc(C(=O)CCP(=O)(O)O)cc2c1F [Compound 7, 4-(4-Fluoro-5-(3-((4-fluoro-6-methoxy-2-(3-phosphonopropanoyl)benzo[b]thiophen-5-yl)oxy)propoxy)-6-methoxybenzo[b]thiophen-2-yl)-4-oxobutanoic acid]
≤ 50	≤ 50			COc1cc2sc(C(=O)CCC(=O)O)cc2c(F)c1OCCCOc1c(OC)cc2sc(C(=O)CP(=O)(O)O)cc2c1F [Compound 20]
≤ 50	≤ 50			COc1cc2nc(C(=O)CCC(=O)O)ccc2c(F)c1OCCCOc1c(OC)cc2sc(C(=O)CC(C)(C)C(=O)O)cc2c1F [Compound 23, 4-(5-(3-((2-(3-Carboxypropanoyl)-5-fluoro-7-methoxyquinolin-6-yl)oxy)propoxy)-4-fluoro-6-methoxybenzo[b]thiophen-2-yl)-2,2-dimethyl-4-oxobutanoic acid]
≤ 50	≤ 50			COc1cc2sc(/C=C/CC(=O)O)cc2c(F)c1OCCCOc1c(OC)cc2sc(C(=O)CC(C)(C)C(=O)O)cc2c1F [Compound 11, (E)-4-(5-(3-((2-(3-carboxy-3-methylbutanoyl)-4-fluoro-6-methoxybenzo[b]thiophen-5-yl)oxy)propoxy)-4-fluoro-6-methoxybenzo[b]thiophen-2-yl)but-3-enoic acid]
